Results taken from patent US9834526B2 (MERCK SHARP & DOHME CORP., priority 2013, dated 2017).
pIC50: −log10 of the molar value.

These molecules were tested against T1, wildtype HIV-1 protease (Human immunodeficiency virus type 1 group M subtype B, UniProt P04585) (assay: Inhibition of microbial expressed HIV protease (Pepcleav)). Conditions: wild type HIV-1 protease expressed in E. coli, 20 pM enzyme, 400 micromolar peptide substrate, pH 5.5, LC-MS readout; mean of at least two independent experiments.
T1 construct: preincubated with the HIV-1 protease (wild type) enzyme in assay buffer; made in house; host or cells: Escherichia coli
Format: biochemical
Experimental: Assay for Inhibition of Microbial Expressed HIV Protease (“Pepcleav”)
Studies of the inhibition of the wildtype HIV-1 protease (which was expressed in Escherichia coli) were carried out with a peptide substrate [Val-Ser-Gln-Asn-(βnaphthyl)Ala-Pro-Ile-Val (SEQ ID NO:1)]. The inhibitor was first preincubated with the HIV-1 protease (wild type) enzyme in assay buffer (50 mM sodium acetate, pH 5.5, 100 mM NaCl, and 0.1% BSA) for 30 minutes at room temperature. Substrate was added to 400 micromolar in a total volume of 20 microliters containing 20 picomolar HIV-1 protease (final) and the reaction was incubated for 1 hour at 30° C. The reaction was quenched with the addition of formic acid and indinavir to 0.012% and 150 nM final concentrations, respectively. The product formation was determined after separation of product and substrate on a Zorbax Eclipse XDB-C18 column connected to an API 4000 mass spectrometer (Applied Biosystems) with multiple reaction monitoring (transitions were 644.5/428.9 and 615.4/422.2 (M1/M3) for product and indinavir respectively). The extent of inhibition of the reaction was determined from the peak area of the products. Analysis of the products, independently synthesized, provided quantitation standards and confirmation of the product composition.
With COC(=O)N[C@H](C(=O)Nc1ccccc1CC[C@@H]1CN[C@H](C)[C@@H](CSc2ccc(Cl)cc2)O1)C(c1ccccc1)c1ccccc1 [Example 1, N-(2-{2-[(2R,5R,6S)-6-{[(4-chlorophenyl)sulfanyl]methyl}-5-methylmorpholin-2-yl]ethyl}phenyl)-Nα-(methoxycarbonyl)-β-phenyl-L-phenylalaninamide] the pIC50 was 7.76. For COC(=O)N[C@H](C(=O)Nc1ccccc1CC[C@@H]1CN[C@H](C)[C@@H](COc2ccc(C#N)cc2)O1)C(c1ccccc1)c1ccccc1 [Example 2], the pIC50 was 6.65. COC(=O)N[C@H](C(=O)Nc1ccccc1CC[C@@H]1CN[C@H](C)[C@@H](CSc2ncccc2Cl)O1)C(c1ccccc1)c1ccccc1 [Example 3, N-(2-{2-[(2R,5R,6S)-6-{[(3-chloropyridin-2-yl)sulfanyl]methyl}-5-methylmorpholin-2-yl]ethyl}phenyl)-Nα-(methoxycarbonyl)-β-phenyl-L-phenylalaninamide] showed a pIC50 of 8.12. COC(=O)N[C@H](C(=O)Nc1ccccc1CC[C@@H]1CN[C@H](C)[C@@H](CSc2cccc3ncccc23)O1)C(c1ccccc1)c1ccccc1 [Example 4, methyl [(2S)-1-{[2-(2-{(2R,5R,6S)-5-methyl-6-[(quinolin-5-ylsulfanyl)methyl]morpholin-2-yl}ethyl)phenyl]amino}-1-oxo-3,3-diphenylpropan-2-yl]carbamate] was tested, and the pIC50 was 7.97. With COC(=O)N[C@H](C(=O)Nc1ccccc1CC[C@@H]1CN[C@H](C)[C@@H](CSc2nnc(-c3ccncc3)o2)O1)C(c1ccccc1)c1ccccc1 [Example 5, methyl N-[(1S)-1-benzhydryl-2-[[2-[2-[(2R,5R,6S)-5-methyl-6-[[5-(4-pyridyl)-1,3,4-oxadiazol-2-yl]sulfanylmethyl]morpholin-2-yl]ethyl]phenyl]amino]-2-oxo-ethyl]carbamate] the pIC50 was 8.30. COC(=O)N[C@H](C(=O)Nc1ccccc1CC[C@@H]1CN[C@H](C)[C@@H](CSc2nnc(Cn3nccc3C)o2)O1)C(c1ccccc1)c1ccccc1 [Example 6, methyl N-[(1S)-1-benzhydryl-2-[[2-[2-[(2R,5R,6S)-5-methyl-6-[[5-[(5-methylpyrazol-1-yl)methyl]-1,3,4-oxadiazol-2-yl]sulfanylmethyl]morpholin-2-yl]ethyl]phenyl]amino]-2-oxo-ethyl]carbamate] showed a pIC50 of 8.29. With COC(=O)N[C@H](C(=O)Nc1ccccc1CC[C@@H]1CN[C@H](C)[C@@H](CSc2nnc(Cc3csc(C)n3)o2)O1)C(c1ccccc1)c1ccccc1 [Example 7, methyl N-[(1S)-1-benzhydryl-2-[[2-[2-[(2R,5R,6S)-5-methyl-6-[[5-[(2-methylthiazol-4-yl)methyl]-1,3,4-oxadiazol-2-yl]sulfanylmethyl]morpholin-2-yl]ethyl]phenyl]amino]-2-oxo-ethyl]carbamate] the pIC50 was 8.10. COC(=O)N[C@H](C(=O)Nc1ccccc1CC[C@@H]1CN[C@H](C)[C@@H](CSc2ccc(Cl)cn2)O1)C(c1ccccc1)c1ccccc1 [Example 8, methyl N-[(1S)-1-benzhydryl-2-[[2-[2-[(2R,5R,6S)-6-[(5-chloro-2-pyridyl)sulfanylmethyl]-5-methyl-morpholin-2-yl]ethyl]phenyl]amino]-2-oxo-ethyl]carbamate] gave a pIC50 of 8.08. With COC(=O)N[C@H](C(=O)Nc1ccccc1CC[C@@H]1CN[C@H](C)[C@@H](CSc2cnc3ccccc3n2)O1)C(c1ccccc1)c1ccccc1 [Example 9, methyl N-[(1S)-1-benzhydryl-2-[[2-[2-[(2R,5R,6S)-5-methyl-6-(quinoxalin-2-ylsulfanylmethyl)morpholin-2-yl]ethyl]phenyl]amino]-2-oxo-ethyl]carbamate] the pIC50 was 8.07. Work on COC(=O)N[C@H](C(=O)Nc1ccccc1CC[C@@H]1CN[C@H](C)[C@@H](CSc2ncnc3[nH]ncc23)O1)C(c1ccccc1)c1ccccc1 [Example 10, methyl N-[(1S)-1-benzhydryl-2-[[2-[2-[(2R,5R,6S)-5-methyl-6-(1H-pyrazolo[3,4-d]pyrimidin-4-ylsulfanylmethyl)morpholin-2-yl]ethyl]phenyl]amino]-2-oxo-ethyl]carbamate] yielded a pIC50 of 8.03. For COC(=O)N[C@H](C(=O)Nc1ccccc1CC[C@@H]1CN[C@H](C)[C@@H](CSc2ncnc3c2cnn3C)O1)C(c1ccccc1)c1ccccc1 [Example 11, methyl N-[(1S)-1-benzhydryl-2-[[2-[2-[(2R,5R,6S)-5-methyl-6-[(1-methylpyrazolo[3,4-d]pyrimidin-4-yl)sulfanylmethyl]morpholin-2-yl]ethyl]phenyl]amino]-2-oxo-ethyl]carbamate], the pIC50 was 7.93. COC(=O)N[C@H](C(=O)Nc1ccccc1CC[C@@H]1CN[C@H](C)[C@@H](CSc2ccc(C)c(C)c2)O1)C(c1ccccc1)c1ccccc1 [Example 12, methyl N-[(1S)-1-benzhydryl-2-[[2-[2-[(2R,5R,6S)-6-[(3,4-dimethylphenyl)sulfanylmethyl]-5-methyl-morpholin-2-yl]ethyl]phenyl]amino]-2-oxo-ethyl]carbamate] gave a pIC50 of 7.93. In the case of COC(=O)N[C@H](C(=O)Nc1ccccc1CC[C@@H]1CN[C@H](C)[C@@H](CSc2nncs2)O1)C(c1ccccc1)c1ccccc1 [Example 13, methyl N-[(1S)-1-benzhydryl-2-[[2-[2-[(2R,5R,6S)-5-methyl-6-(1,3,4-thiadiazol-2-ylsulfanylmethyl)morpholin-2-yl]ethyl]phenyl]amino]-2-oxo-ethyl]carbamate], the pIC50 was 7.90. For COC(=O)N[C@H](C(=O)Nc1ccccc1CC[C@@H]1CN[C@H](C)[C@@H](CSc2nc(C(F)(F)F)nc3ccccc23)O1)C(c1ccccc1)c1ccccc1 [Example 14, methyl N-[(1S)-1-benzhydryl-2-[[2-[2-[(2R,5R,6S)-5-methyl-6-[[2-(trifluoromethyl)quinazolin-4-yl]sulfanylmethyl]morpholin-2-yl]ethyl]phenyl]amino]-2-oxo-ethyl]carbamate], the pIC50 was 7.85. CCC(O)(c1cnc(SC[C@H]2O[C@H](CCc3ccccc3NC(=O)[C@@H](NC(=O)OC)C(c3ccccc3)c3ccccc3)CN[C@@H]2C)s1)C(F)(F)F (stereo partly drawn) [Example 15, methyl N-[(1S)-1-benzhydryl-2-[[2-[2-[(2R,5R,6S)-6-[[5-[1-hydroxy-1-(trifluoromethyl)propyl]thiazol-2-yl]sulfanylmethyl]-5-methyl-morpholin-2-yl]ethyl]phenyl]amino]-2-oxo-ethyl]carbamate] was tested, and the pIC50 was 7.75. Molecule COC(=O)N[C@H](C(=O)Nc1ccccc1CC[C@@H]1CN[C@H](C)[C@@H](CSc2nc(C)c(C)o2)O1)C(c1ccccc1)c1ccccc1 [Example 16, methyl N-[(1S)-1-benzhydryl-2-[[2-[2-[(2R,5R,6S)-6-[(4,5-dimethyloxazol-2-yl)sulfanylmethyl]-5-methyl-morpholin-2-yl]ethyl]phenyl]amino]-2-oxo-ethyl]carbamate] has a pIC50 of 7.67. With COC(=O)N[C@H](C(=O)Nc1ccccc1CC[C@@H]1CN[C@H](C)[C@@H](CSc2nc3ccc(OC(F)F)cc3[nH]2)O1)C(c1ccccc1)c1ccccc1 [Example 17, methyl N-[(1S)-1-benzhydryl-2-[[2-[2-[(2R,5R,6S)-6-[[5-(difluoromethoxy)-1H-benzimidazol-2-yl]sulfanylmethyl]-5-methyl-morpholin-2-yl]ethyl]phenyl]amino]-2-oxo-ethyl]carbamate] the pIC50 was 7.60. Work on COC(=O)N[C@H](C(=O)Nc1ccccc1CC[C@@H]1CN[C@H](C)[C@@H](CSc2nc(C)cc(C(F)(F)F)n2)O1)C(c1ccccc1)c1ccccc1 [Example 18, methyl N-[(1S)-1-benzhydryl-2-[[2-[2-[(2R,5R,6S)-5-methyl-6-[[4-methyl-6-(trifluoromethyl)pyrimidin-2-yl]sulfanylmethyl]morpholin-2-yl]ethyl]phenyl]amino]-2-oxo-ethyl]carbamate] yielded a pIC50 of 7.46. Molecule COC(=O)N[C@H](C(=O)Nc1ccccc1CC[C@@H]1CN[C@H](C)[C@@H](CSc2ccncc2)O1)C(c1ccccc1)c1ccccc1 [Example 19, methyl N-[(1S)-1-benzhydryl-2-[[2-[2-[(2R,5R,6S)-5-methyl-6-(4-pyridylsulfanylmethyl)morpholin-2-yl]ethyl]phenyl]amino]-2-oxo-ethyl]carbamate] has a pIC50 of 7.38. COC(=O)N[C@H](C(=O)Nc1ccccc1CC[C@@H]1CN[C@H](C)[C@@H](CSc2ncccc2C(F)(F)F)O1)C(c1ccccc1)c1ccccc1 [Example 20, methyl N-[(1S)-1-benzhydryl-2-[[2-[2-[(2R,5R,6S)-5-methyl-6-[[3-(trifluoromethyl)-2-pyridyl]sulfanylmethyl]morpholin-2-yl]ethyl]phenyl]amino]-2-oxo-ethyl]carbamate] was tested, and the pIC50 was 7.36. For COC(=O)N[C@H](C(=O)Nc1ccccc1CC[C@@H]1CN[C@H](C)[C@@H](CSc2nc3ccc(Cl)nc3s2)O1)C(c1ccccc1)c1ccccc1 [Example 21, methyl N-[(1S)-1-benzhydryl-2-[[2-[2-[(2R,5R,6S)-6-[(5-chlorothiazolo[5,4-b]pyridin-2-yl)sulfanylmethyl]-5-methyl-morpholin-2-yl]ethyl]phenyl]amino]-2-oxo-ethyl]carbamate], the pIC50 was 7.35.
